Assay [1] deals with NIH/3T3 (fibroblast). The assay is described as follows: MTT antiproliferative assay. It counts as cell-based. As to conditions: Mus musculus, 72 h. As to the method:
The antiproliferative properties of the tested compounds were additionally determined using the MTT assay against a panel of human adherent cancer cell lines isolated from breast (MCF-7 and MDA-MB-231), cervical (HeLa and SiHa), and ovarian (A2780) tumors and also on the NIH/3T3 fibroblast cell line (Table 3). IC50 values were calculated from a wider concentration range (0.1–30 μM) when higher than 50% cell growth inhibition was obtained at 10 μM (Table 4). Cisplatin was used as a reference compound. […] The noncancerous fibroblast cell line NIH/3T3 was used to gather preliminary data regarding the cancer selectivity of vindolin derivatives. […] The tumor selectivity of compound 9g, expressed as the ratio of IC50 on cancer cells and fibroblasts, is substantially higher than that of cisplatin (Table 4).
The antiproliferative effects of the prepared derivatives were evaluated in vitro using the MTT assay against a panel of human adherent cancer cell lines, including breast (MDA-MB-231, MCF-7), cervical (SiHa, HeLa), and ovarian (A2780) cancer cells. The noncancerous fibroblast cell line NIH/3T3 was included to obtain data concerning the tumor selectivity of the test substances. All cell lines were sourced from the European Collection of Cell Cultures (Salisbury, UK), except for SiHa (American Tissue Culture Collection (Manassas, VA, USA). All cell lines were maintained in Eagle’s Minimal Essential Medium (EMEM) supplemented with 10% fetal bovine serum (FBS), 1% non-essential amino acids, and a mixture of penicillin, streptomycin, and amphotericin B. The cells were maintained in a humidified atmosphere containing 5% CO2 at 37 °C. The media and the cell culture supplements were procured from Capricorn Scientific Ltd. (Ebsdorfergrund, Germany). Cells were seeded into 96-well microplates at 5000/well and, the next day, treated with vindoline derivatives at two concentrations (10 or 30 μM) for 72 h under cell culturing conditions. […] When higher than 50% cell growth inhibition was observed, the assay was repeated using a wide concentration range (0.1–30 μM). The IC50 values were calculated using GraphPad Prism software 10.3.1 (GraphPad Software, San Diego, CA, USA). Two independent experiments were performed with at least five replicates per condition.

The subject of assay [2] is A2780 cells. Description: Wound healing migration assay. It counts as cell-based, human. The conditions noted are these: A2780, sub-inhibitory concentrations (0.5 or 1.0 µM), 24 and 48 h. As to the method: The antimigratory properties of compound 9g were investigated using the in vitro wound healing assay against the ovarian cancer cell line A2780.
The effect of compound 9g on the migration of A2780 cells was assessed using a wound-healing assay. A2780 cells were trypsinized and seeded into specialized wound assay chambers (ibidi GmbH, Martinsried, Germany) at a density of 80,000 cells/insert and the plate was incubated under standard conditions to allow proper attachment. After incubation, the inserts were carefully removed and the wells were washed twice with PBS to eliminate non-adherent cells and debris. The cells were subsequently treated with […] at 0.5 or 1.0 µM in fresh medium containing 2% FBS. The migration of cells toward the wound site was visualized using a phase-contrast inverted microscope (Nikon Instruments Europe, Amstelveen, The Netherlands) and images were captured with a CCD camera (QImaging MicroPublisher Color RTV5.0 Teledyne Photometrics, Tucson, AZ, USA). The percentage of cell migration was calculated at different time intervals (0, 24, and 48 h) by measuring the cell-free area in treated samples against untreated controls using ImageJ software 1.54d (National Institutes of Health, Bethesda, MD, USA). The experiments were conducted twice with at least three parallel samples.

Assay [3] relates to non-tumor CHO cells. Description: CellTiter-Glo Luminescent Cell Viability Assay. It counts as cell-based, Chinese hamster. The conditions noted are these: for IC50: Cricetulus griseus, 48 h treatment, read-out: IC50 (estimated). As to the method:
Conjugates 9b and 9e were selected based on their antitumor effects to be tested on non-tumor CHO cells in the CellTiter-Glo Luminescent Cell Viability Assay to investigate their potential selectivity for cancer cells. Following a 48 h treatment with the conjugates in the 0.10–10 µM concentration range, a concentration-dependent decrease in the luminescent signal was observed, indirectly representing the ATP production of living cells as an indicator of cell viability.
Conjugates 9b and 9e were dissolved in DMSO in 10 mM stock solutions and stored frozen until use. CHO cells were cultured in complete Dulbecco’s Modified Eagle’s Medium (DMEM, low glucose (1 g/L) supplemented with 10% fetal bovine serum, 1% Gibco GlutaMAX-I (100×) solution, 1% Gibco MEM non-essential amino acid solution (100×), and 0.1% penicillin–streptomycin mixture). The CellTiter-Glo Luminescent Cell Viability Assay (Promega Corporation, Madison, WI, USA) was performed as previously described. Cells were grown under standard cell culture conditions (37 °C, 5% CO2) and passaged at 70–80% confluency. According to the manufacturer’s protocol, CHO cells were seeded to opaque 96-well culture plates (5000 cells/100 µL complete DMEM/well) and the side rows and columns of the plate were filled with sterile phosphate-buffer saline to avoid artifacts. […] The luminescent signal was measured for each assay well with an EnSpire AlphaLisa microplate reader (Perkin Elmer, Inc., Waltham, MA, USA). […] Estimated IC50 values were calculated using non-linear regression by fitting a sigmoidal dose-response curve to the data points (log(inhibitor) vs. normalized response, variable slope, and least squares fit).
Statistical analysis (ANOVA) and estimation of IC50 values were performed in GraphPad Prism 8.0.1 (GraphPad, La Jolla, CA, USA). Estimated IC50 values were calculated using non-linear regression by fitting a sigmoidal dose-response curve to the data points (log(inhibitor) vs. normalized response, variable slope, least squares fit).

For the compound `CC[C@]12C=CCN3CC[C@@]4(c5ccc(OC)cc5N(C)[C@H]4[C@@](O)(C(=O)OC)[C@@H]1OC(=O)CCC[P+](c1ccccc1)(c1ccccc1)c1ccccn1)[C@@H]32` [9g], in assay [1] (NIH3T3, 10 μM, read-out: Growth Inhibition (%) ± SEM), the inhibition at 10 µM worked out at 34.6 ± 1.11%. Further, the inhibition at 30 µM in assay [1] (NIH3T3, 30 μM, read-out: Growth Inhibition (%) ± SEM (converted)) was 77.2%. Besides, in assay [1] (NIH3T3, MTT, read-out: IC50 Value (μM) ± SEM), the IC50 was found to be 14.37 ± 0.02 µM. Also, in assay [2], the cell migration result was “concentration- and duration-dependent reduction in cell migration”.
For `CC[C@]12C=CCN3CC[C@@]4(c5ccc(OC)cc5N(C)[C@H]4[C@@](O)(C(=O)OC)[C@@H]1OC(=O)CCC[P+](c1ccc(OC)cc1)(c1ccc(OC)cc1)c1ccc(OC)cc1)[C@@H]32` [9b], in assay [3], the IC50 is 2980 nM.
`CC[C@]12C=CCN3CC[C@@]4(c5ccc(OC)cc5N(C)[C@H]4[C@@](O)(C(=O)OC)[C@@H]1OC(=O)CCC[P+](c1cc(C)c(OC)c(C)c1)(c1cc(C)c(OC)c(C)c1)c1cc(C)c(OC)c(C)c1)[C@@H]32` [9e] showed a decrease in viability in assay [3] (1.0 µM, 48 h) of 26.4 ± 5.8%. The IC50 in assay [3] was 1360 nM.

For orientation: inhibition means the percentage by which the read-out fell short of the control. The term IC50 denotes the point on the concentration scale where inhibition reaches its midpoint.

Source of the values: paper PMC12028158, “Synthesis and In Vitro Evaluation of the Anticancer Effect of Novel Phosphonium Vindoline Derivatives” (International Journal of Molecular Sciences, 2025).
